In the assay the target is T1, ACC (acetyl CoA carboxylase) purified from liver of male SD rat (Rattus norvegicus, UniProt P11497).
T1 construct: applied to a monomeric avidin sepharose column, and washed with buffer B. The ACC was eluted with buffer B containing 2 mM d-biotin; from tissue; host or cells: liver of male SD rat
Nature of the assay: Measurement of ACC inhibition activity ([14C]-NaHCO3 incorporation). In kind it is biochemical. The following applies: ACC inhibition activity rate at 1 μM, read-out: ACC Inhibition (%). The procedure, abridged: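 Enzyme was avidin-purified from livers of rats fasted and then sucrose-fed. Compounds were preincubated with ACC for 30 min at 37° C in Tris-HCl pH 7.5 with MgCl2, citrate and DTT. [14C]-NaHCO3 solution with 8 mM ATP and 0.5 mM acetyl CoA was added for 10 min at 37° C. Acid-stable 14C gave % inhibition at 1 μM.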

The mark [1] stands for this setting: Table 4-IV, Mode 4 benzenediamine compounds (numbers = x-IV).
[2] abbreviates: Table 3-I, Mode 1 quinoline compounds (numbers = x-I).
The mark [3] stands for this setting: Table 4-A, further compounds of Modes 2 and 3.
The mark [4] stands for this setting: Table 2-III, Mode 3 acetylene/oxadiazole/thiazole compounds (numbers = x-III).

Our source for the inhibition values is patent US7402696B2, “Benzene compounds” (Ajinomoto Co., Inc., priority 2004, dated 2008).

Where two headings read alike, the source gives them in different places.

Usually inhibition stands for the relative decrease from the control value, in per cent.

For `CC(C)CCN(C)c1ccc(-c2noc(-c3cccc(C(=O)NS(=O)(=O)c4ccccc4)c3)n2)cc1NCc1ccccc1O` [compound 97], the inhibition at 1 µM under setting [1] amounted to 98%.

As for `CCCCS(=O)(=O)NC(=O)CC(NC(=O)c1ccc2nc(-c3cc(C(F)(F)F)cc(C(F)(F)F)c3)ccc2c1)c1cccc(N)c1` (stereo not shown) [compound 102], the inhibition at 1 µM under setting [2] was 45%.

In the case of `CC(C)CCN(C)c1ccc(-c2noc(-c3cccc(C(=O)NS(=O)(=O)c4ccccc4)c3)n2)cc1NC(C)C` [compound 48], the inhibition at 1 µM under setting [1] stood at 87%.

On to `O=C(NS(=O)(=O)c1ccc(-c2nc(-c3ccc(-c4csc(-c5ccccc5)n4)cc3)no2)cc1)c1ccccc1` [Compound 135-III], for which the inhibition at 1 µM under setting [3] turned out to be 98%.

On to `CCCCCC(=O)NS(=O)(=O)c1ccccc1NC(=O)c1ccc(Nc2ccccc2)c(NC(=O)c2ccc(C(F)(F)F)cc2)c1` [compound 25], for which the inhibition at 1 µM under setting [1] amounted to 97%.

As for `CC(C)(C)c1ccc(C(=O)NS(=O)(=O)c2ccccc2NC(=O)c2ccc3nc(-c4cccc(C(F)(F)F)c4)n(-c4ccccc4)c3c2)cc1` [compound 5], for the setting “Table 3-II, Mode 2 benzimidazole compounds (numbers = x-II)”, the inhibition at 1 µM was found to be 89%.

On to `CC(C)CCN(C)c1ccc(-c2noc(-c3cccc(C(=O)NS(=O)(=O)c4ccccc4)c3)n2)cc1[N+](=O)[O-]` [compound 37], for which, under setting [1], the inhibition at 1 µM stood at 86%.

On to `O=C(O)c1ccc(S(=O)(=O)NC(=O)c2cccc(-c3nc(-c4ccc(-c5csc(-c6ccccc6)n5)cc4)no3)c2)cc1` [Compound 144-III], for which the inhibition at 1 µM under setting [3] turned out to be 97%.

As for `CC(C)CCN(C)c1ccc(-c2noc(-c3cccc(C(=O)NS(=O)(=O)c4ccccc4)c3)n2)cc1NCC1CCCCC1` [compound 47], the inhibition at 1 µM under setting [1] amounted to 100%.

Take `O=C(O)CNC(=O)Nc1ccc(C#Cc2cccc(C(F)(F)F)c2)cc1` [compound 65]: the inhibition at 1 µM under setting [4] turned out to be 64%.

With `Cc1ccccc1S(=O)(=O)NC(=O)c1cccc(-c2nc(-c3ccc(N(C)CCC(C)C)c(NCc4ccccc4)c3)no2)c1` [compound 103], the inhibition at 1 µM under setting [1] was 100%.

For the compound `CCCCS(=O)(=O)NC(=O)c1ccccc1NC(=O)c1ccc2nc(-c3cccc(OC(F)(F)F)c3)ccc2c1` [compound 13], the inhibition at 1 µM under setting [2] came out at 48%.

As to `CC(C)CCN(C)c1ccc(-c2noc(-c3cccc(C(=O)NS(=O)(=O)c4ccccc4)c3)n2)cc1NCc1cccc(O)c1` [compound 96], the inhibition at 1 µM under setting [1] is 95%.

`CCCCCC(=O)NS(=O)(=O)c1ccccc1NC(=O)c1ccc(Nc2ccc(C(F)(F)F)cc2)c(NC(=O)c2ccncc2)c1` [compound 33]: the inhibition at 1 µM under setting [1] was determined as 61%.

On to `CC(C)CCN(C)c1ccc(-c2noc(-c3cccc(C(=O)NS(=O)(=O)c4ccccc4)c3)n2)cc1NCc1ccc(OCCO)cc1` [compound 113], for which the inhibition at 1 µM under setting [1] came to 97%.

As for `CN(C)CCNc1ccc(C(=O)Nc2cccc(C(=O)NS(=O)(=O)c3ccccc3)c2)cc1[N+](=O)[O-]` [compound 62], the inhibition at 1 µM under setting [1] was determined as 53%.

Turning to `CC(C)CCN(C)c1ccc(-c2noc(-c3cccc(C(=O)NS(=O)(=O)c4ccccc4)c3)n2)cc1NC(=O)c1cccs1` [compound 43], the inhibition at 1 µM under setting [1] came to 83%.

As to `CC(C)CCN(C)c1ccc(-c2noc(-c3cccc(C(=O)NS(=O)(=O)c4ccccc4)c3)n2)cc1NCC1=CCCCC1` [compound 57], the inhibition at 1 µM under setting [1] is 100%.

As to `CC(C)CCN(C)c1ccc(C(=O)NC(CC(=O)NS(=O)(=O)c2ccccc2)C2CCCCC2)cc1NCC1CCCCC1` (stereo not shown) [compound 55], the inhibition at 1 µM under setting [1] was 90%.

Regarding `CC(C)c1ccc(S(=O)(=O)NC(=O)c2ccccc2-c2csc(-c3ccc4nc(-c5cc(C(F)(F)F)cc(C(F)(F)F)c5)ccc4c3)n2)cc1` [compound 115], the inhibition at 1 µM under setting [2] is 97%.

Consider `Cc1ccccc1S(=O)(=O)NC(=O)CC(NC(=O)c1ccc(N(C)CCC(C)C)c(NCC2CCCC2)c1)C1CCCCC1` (stereo not shown) [compound 126], for which the inhibition at 1 µM under setting [1] was determined as 91%.

`CN(c1ccc(C(=O)NC(CC(=O)NS(=O)(=O)c2ccccc2)C2CCCCC2)cc1NCCc1ccccc1)C1CC1` (stereo not shown) [Compound 157-IV]: the inhibition at 1 µM under setting [1] is 69%.

For the compound `CC(C)c1ccc(S(=O)(=O)NC(=O)c2cccc(-c3nc(-c4ccc(-c5csc(-c6ccc(C(F)(F)F)cc6)n5)cc4)no3)c2)cc1` [compound 106], the inhibition at 1 µM under setting [4] came out at 97%.

On to `Cc1ccccc1S(=O)(=O)NC(=O)[C@@H]1CCCC[C@H]1NC(=O)c1ccc(N(C)CCC(C)C)c(NCc2ccccc2)c1` [Compound 145-IV], for which, under setting [1], the inhibition at 1 µM is 57%.

`O=C(Nc1ccccc1C(=O)O)c1ccc2nc(-c3cc(C(F)(F)F)cc(C(F)(F)F)c3)ccc2c1` [compound 3]: the inhibition at 1 µM under setting [2] was 53%.
